Data from PubChem BioAssay AID1817 (Sanford-Burnham Center for Chemical Genomics, 2009).
The source made the active and inactive calls.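 Rule for the calls: active = displacement of at least 50% at 20 µM, with a fluorescence ratio check between 0.3 and a set limit; inactive = the rest.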

Molecular target: E3 ubiquitin-protein ligase SIAH1 (Homo sapiens) (UniProt Q8IUQ4)
Test: blockers of Siah-1 interaction with plectin peptide – biochemical, fluorescence polarization, rhodamine-plectin, uHTS, primary screen (AID 1817)
Conditions: Siah-1 / rhodamine-plectin peptide fluorescence polarization

Chain of E3 ubiquitin-protein ligase SIAH1 (Homo sapiens) (Q8IUQ4 whole entry, looked up): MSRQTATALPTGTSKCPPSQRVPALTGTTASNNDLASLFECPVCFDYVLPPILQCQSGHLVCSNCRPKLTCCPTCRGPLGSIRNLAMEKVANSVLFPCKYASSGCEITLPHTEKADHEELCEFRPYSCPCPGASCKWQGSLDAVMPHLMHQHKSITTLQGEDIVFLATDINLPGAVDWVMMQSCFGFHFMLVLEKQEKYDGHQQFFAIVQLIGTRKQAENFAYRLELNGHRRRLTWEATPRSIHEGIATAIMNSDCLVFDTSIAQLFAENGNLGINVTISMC

SMILES	IC50
Cc1cc(C)n2ncc(C(=O)Nc3ccc4c(c3)OCO4)c2n1	> 200 µM (inactive)
CC(C)(C)c1cc(-c2csc(Nc3ccccc3)[n+]2Cc2ccc(C(=O)O)cc2)cc(C(C)(C)C)c1O	> 200 µM (inactive)
N#CC1C=Cc2ccccc2N1C(=O)c1ccccc1 (centres undefined)	> 200 µM (inactive)
CCOc1ccccc1CNc1ccc(O)cc1	inactive
CC12CCC(C(=O)NCc3ccc(Cl)cc3)(OC1=O)C2(C)C (centres undefined)	> 200 µM (inactive)
CCCCN(Cc1cc2cc(OC)ccc2[nH]c1=O)S(=O)(=O)c1ccc(C)cc1	> 200 µM (inactive)
O=c1ccc2c(-c3ccccc3)c3ccc(O)cc3oc-2c1	11.1 µM
CCCCn1c(NS(=O)(=O)c2ccccc2)c(S(=O)(=O)c2ccc(C)cc2)c2nc3ccccc3nc21	> 200 µM (inactive)
Cc1ccccc1-c1nc2c3ccccc3nc(=S)n2[nH]1	> 200 µM (inactive)
CC(NC(=O)Nc1ccc(O)cc1)(C(F)(F)F)C(F)(F)F	> 200 µM (inactive)
COC/C=C/C1=CC2=CC(=O)C(C)(OC(=O)c3ccco3)C(=O)C2=CO1 (centres undefined)	inactive
CCCCNc1nnc(Cc2ccc(Cl)cc2)c(=O)[nH]1	> 200 µM (inactive)
CCOc1cc(/C=C(\C#N)C(=O)Nc2ccccc2C(=O)O)ccc1OC(=O)c1ccc(C)cc1	> 200 µM (inactive)
O=C(Nc1ccc(Br)cc1)c1ccc(N2C(=O)C3CC=CCC3C2=O)cc1 (centres undefined)	18.6 µM
COc1ccc(C(C(=O)NCc2ccccc2)N(Cc2ccco2)C(=O)c2cnccn2)cc1 (centres undefined)	> 200 µM (inactive)
O=C(CCn1ccc2ccccc21)NC1CCCc2ccccc21 (centres undefined)	> 200 µM (inactive)
COc1ccc(CCNC(=O)CCC(=O)N2CCOc3ccc(C)cc32)cc1OC	> 200 µM (inactive)
COC(=O)C1C=C2c3cccc4[nH]cc(c34)CC2N(C)C1 (centres undefined)	inactive
CCOC(=O)C1(C)C=C(Nc2ccc(O)cc2)C(=O)N1c1ccc(O)cc1 (centres undefined)	> 200 µM (inactive)
CSc1n[nH]c(NCc2ccc(Cl)cc2)n1	> 200 µM (inactive)
Cc1coc2c(C)c3oc(=O)c(CCC(=O)N[C@@H](C)C(=O)N[C@@H](Cc4ccccc4)C(=O)O)c(C)c3cc12	16.8 µM
CC(=O)c1ccc(NC(=O)CC2Nc3cccc4cccc(c34)NC2=O)cc1 (centres undefined)	> 200 µM (inactive)
COCCOC(=O)c1sc(=S)n(CCOC)c1N	8.07 µM

SMILES	IC50
O=C(Nc1ccc(Cl)cc1)c1ccc(S(=O)(=O)N2CCOCC2)cc1	> 200 µM (inactive)
O=C(/C=C/c1ccco1)OCc1nnc(-c2ccccc2)o1	> 200 µM (inactive)
Cc1ccccc1NC(=O)CN1C(=O)N/C(=C\c2ccccc2OCc2ccc(C(=O)O)cc2)C1=O	11.5 µM
CCNc1ccc(C(=O)O)cc1N	inactive
O=S(=O)(Nc1c(S(=O)(=O)c2ccccc2)c2nc3ccccc3nc2n1C1CCCCC1)c1ccccc1	> 200 µM (inactive)
CC1CCN(C(=O)C2CCC(C)(C(=O)O)C2(C)C)CC1 (centres undefined)	> 200 µM (inactive)
Cc1cc2cc(CNC(=O)c3ccc(S(=O)(=O)N4CCCCC4)cc3)ccc2n1C	> 200 µM (inactive)
CCC1=Nc2cc(C(=O)O)ccc2Sc2ccccc21	> 200 µM (inactive)
CC1=C(C#N)c2nc(N)c(C#N)c(C)c2/C1=C\c1ccc(-c2ccccc2C(=O)O)o1	20.6 µM
COC(=O)c1cc(NC(=O)c2ccccc2)c(=O)oc1/C=C/Nc1ccc(Oc2ccccc2)cc1	> 200 µM (inactive)
N#Cc1c(NC(=O)c2ccc(Br)o2)n(-c2ccccc2)c2nc3ccccc3nc12	> 200 µM (inactive)
CCn1c(O)c(C=Nc2ccc(N3CCOCC3)cc2)c(=O)n(CC)c1=S	> 200 µM (inactive)
Cc1cc(Cl)ccc1NC(=O)CN1CCC(C(O)(c2ccccc2)c2ccccc2)CC1	> 200 µM (inactive)
CCC(C)[C@H](NC(=O)N1CCn2c1nc1ccccc12)C(=O)NCCc1ccc(OC)c(OC)c1 (some centres undefined)	> 200 µM (inactive)
CC1=CC(C)(C)N2C(=O)C(=Nc3ccc(O)cc3)c3cccc1c32	inactive
CC1CCN(S(=O)(=O)c2ccc3c(c2)c(=O)c(C(=O)NCc2ccccc2Cl)cn3C)CC1	> 200 µM (inactive)
Oc1ccc(N=Cc2ccc(OCc3ccccc3)cc2)cc1	inactive
COc1cccc(CCC(=O)N(C)C2CCCN(Cc3ccccc3F)C2)c1 (centres undefined)	> 200 µM (inactive)
CCCCn1c(NC(=O)c2ccc(Br)o2)c(C(=O)OCC)c2nc3ccccc3nc21	> 200 µM (inactive)
CCCCn1c(NS(=O)(=O)c2ccc(C)cc2)c(S(=O)(=O)c2ccccc2)c2nc3ccccc3nc21	> 200 µM (inactive)
O=C(NCc1c(F)cccc1F)c1cc(COc2c(F)cccc2F)on1	> 200 µM (inactive)
Nc1c(C(=O)NCc2ccco2)c2nc3ccccc3nc2n1CCc1ccccc1	> 200 µM (inactive)
Cc1cc(C)c(C#N)c(Nc2ccccc2C)n1	> 200 µM (inactive)

SMILES	IC50
COCCCn1c(N)c(C(=O)NCc2ccco2)c2nc3ccccc3nc21	> 200 µM (inactive)
COCCCNc1c2c3c(cccc3[nH]c1=O)C(=O)c1ccccc1-2	> 200 µM (inactive)
O=S(=O)(Nc1nc2ccccc2nc1Nc1ccc(N2CCOCC2)cc1)c1cc(Cl)ccc1Cl	> 200 µM (inactive)
COc1ccc(CCNC(=O)c2ccc(S(=O)(=O)N(C)c3ccccc3)cc2)cc1OC	> 200 µM (inactive)
Nc1ccc(S(=O)(=O)Nc2ccc(S(N)(=O)=O)cc2)cc1	> 200 µM (inactive)
Cc1ccc(C(=O)COc2ccccc2C(=O)Nc2ccccc2)cc1	> 200 µM (inactive)
O=C(Nc1ccccc1N1CCCCC1)c1ccc(-c2cccc(Cl)c2)o1	> 200 µM (inactive)
O=S(=O)(O)c1cc(O)c2c(O)c(N=Nc3cc(Cl)ccc3O)c(S(=O)(=O)O)cc2c1	5.13 µM
S=c1[nH]nc(Cc2cccc3ccccc23)n1-c1ccccc1	> 200 µM (inactive)
O=C(NCc1ccc(Cl)cc1)c1cc(-c2cccs2)on1	8.13 µM
Cc1ccn2c(C(=O)CSc3ccc(Cl)cc3Cl)c(C)nc2c1	> 200 µM (inactive)
O=C(CC1Nc2cccc3cccc(c23)NC1=O)Nc1ccccc1 (centres undefined)	> 200 µM (inactive)
COc1cccc2cc(C(=O)N3CCc4ccccc43)c(=O)oc12	> 200 µM (inactive)
CC(C)COc1ccc(-c2nn(-c3ccccc3)cc2/C=C2/SC(=S)N(CC(=O)O)C2=O)cc1	> 200 µM (inactive)
O=C(CCN1CCN(Cc2ccccc2)CC1)Nc1cccc(Cl)c1	> 200 µM (inactive)
CC(=O)Nc1ccc(N=Cc2c(O)c(C(=O)Nc3ccccc3)cc3ccccc23)cc1	24.9 µM
C=CCn1c(NS(=O)(=O)c2ccccc2)c(S(=O)(=O)c2ccc(C)cc2)c2nc3ccccc3nc21	> 200 µM (inactive)
CS(=O)(=O)N1CCN(c2ccc([N+](=O)[O-])c(SCc3ccco3)c2)CC1	> 200 µM (inactive)
COC(=O)C1CC(=O)N(c2ccc(OCc3ccccc3Cl)cc2)C1 (centres undefined)	> 200 µM (inactive)
O=C(Cn1cnc2scc(-c3ccccc3)c2c1=O)NCc1ccco1	> 200 µM (inactive)
COc1cc(/C=C(\C#N)c2nc3ccccc3[nH]2)ccc1OC(=O)c1ccco1	> 200 µM (inactive)
O=C(O)CCN1C(=O)/C(=C/c2cn(-c3ccccc3)nc2-c2cccs2)SC1=S	> 200 µM (inactive)
Oc1c(Br)cc(Br)cc1CNc1ccc(F)cc1	> 200 µM (inactive)
